One molecule from patent US8119671B2, “Isoxazoline-substituted benzamide compound and pest control agent” (Nissan Chemical Industries, Ltd., priority 2007, dated 2012) can be followed below.

Common to all, as to assay type: in vivo
One test has as its system Plutella xylostella. The test can be described thus: Test Example 1: Mortality Test for Plutella xylostella. The conditions noted are these: 144 h. On the procedure:
(§1) A 10% emulsifiable concentrate of the compound of the present invention (depending on the type of the compound, a 10% wettable powder was subjected to the test) was diluted with water containing a spreader to prepare a drug solution in a concentration of 10 ppm. In this drug solution, a leaf of canarium album was immersed for about 10 seconds and was air-dried and then put into a petri dish. In the petri dish, five 2 instar larvae of Plutella xylostella per petri dish were released and the petri dish was capped and stored in a thermostat room of 25° C. The number of killed larvae after 6 days was measured and the mortality was calculated from the following calculation formula: Mortality (%)=(number of killed larvae/number of released larvae)×100. Here, the test was carried out with two replications.

Another test concerns Spodoptera litura. The test can be described thus: Test Example 2: Mortality Test for Spodoptera litura. The conditions noted are these: 144 h. On the procedure:
as §1, with “Spodoptera litura” for “Plutella xylostella”, “same” for “following”, “formula as that in Test Example 1.” for “formula: Mortality (%)=(number of killed larvae/number of released larvae)×100.”

A further test concerns Homona magnanima. Description: Test Example 3: Mortality Test for Homona magnanima. The conditions noted are these: 144 h. On the procedure: as §1, with “of 100” for “of 10”, “of Homona magnanima” for “of Plutella xylostella”, “the same” for “the following”, “calculation formula as that in Test Example 1.” for “calculation formula: Mortality (%)=(number of killed larvae/number of released larvae)×100.”

Test [1] has as its system Frankliniella occidentalis. Description: Test Example 5: Mortality Test for Frankliniella occidentalis. Conditions: 48 h. On the procedure: In a styrol cup having an inner diameter of 7 cm, a wet filtration paper was laid, and on the paper, a leaf of kidney bean cut out so as to have the same diameter as the inner diameter of the cup was laid, followed by inoculating ten 1 instar larvae of Frankliniella occidentalis per leaf to the leaf. A 10% emulsifiable concentrate of the compound of the present invention (depending on the type of the compound, a 10% wettable powder was subjected to the test) was diluted with water containing a spreader to prepare a drug solution in a concentration of 500 ppm. The drug solution was dusted using a rotary dusting tower in an amount of 2.5 mL per styrol cup and the cup was capped and stored in a thermostat room of 25° C. The number of killed larvae after 2 days was measured and the mortality was calculated from the same calculation formula as that in Test Example 1. Here, the test was carried out with two replications.

Another test deals with Thrips palmi. The test can be described thus: Test Example 6: Mortality Test for Thrips palmi. Conditions: 48 h. On the procedure: In a styrol cup having an inner diameter of 7 cm, a wet filtration paper was laid, and on the paper, a leaf of kidney bean cut out so as to have the same diameter as the inner diameter of the cup was laid, followed by inoculating 10 imagines of Thrips palmi per leaf to the leaf. A 10% emulsifiable concentrate of the compound of the present invention (depending on the type of the compound, a 10% wettable powder was subjected to the test) was diluted with water containing a spreader to prepare a drug solution in a concentration of 100 ppm. The drug solution was dusted using a rotary dusting tower in an amount of 2.5 mL per one styrol cup and the cup was capped and stored in a thermostat room of 25° C. The number of killed imagines after 2 days was measured and the mortality was calculated from the same calculation formula as that in Test Example 1. Here, the test was carried out with two replications.

The next test has as its system Aulacophora femoralis. The test can be described thus: Test Example 12: Mortality Test for Aulacophora femoralis. The conditions noted are these: in Cucumis sativus, 144 h. On the procedure:
as §1, with “of 500” for “of 10”, “of cucumber” for “of canarium album”, “of Aulacophora femoralis” for “of Plutella xylostella”, “the same” for “the following”, “calculation formula as that in Test Example 1.” for “calculation formula: Mortality (%)=(number of killed larvae/number of released larvae)×100.”

A further test deals with Liriomyza trifolii. Description: Test Example 13: Mortality Test for Liriomyza trifolii. The conditions noted are these: 144 h, drug solution 500 ppm, kidney bean leaf with eggs immersed, after 6 days. On the procedure:
A 10% emulsifiable concentrate of the compound of the present invention (depending on the type of the compound, a 10% wettable powder was subjected to the test) was diluted with water containing a spreader to prepare a drug solution in a concentration of 500 ppm. In this drug solution, a leaf of kidney bean on which Liriomyza trifolii laid eggs (10 eggs/leaf) and which was cut out to a diameter of 7 cm was immersed for about 10 seconds and was air-dried and then laid on a wet filtration paper laid in a styrol cup having an inner diameter of 7 cm. The styrol cup was capped and stored in a thermostat room of 25° C. The number of killed larvae after 6 days was measured and the mortality was calculated from the same calculation formula as that in Test Example 1. Here, the test was carried out with two replications.

Test [2] concerns Frankliniella occidentalis. Description: Test Example 18: Mortality Test for Frankliniella occidentalis (Comparative Test 2). The conditions noted are these: 48 h. On the procedure: In a styrol cup having an inner diameter of 7 cm, a wet filtration paper was laid, and on the paper, a leaf of kidney bean cut out so as to have the same diameter as the inner diameter of the cup was laid, followed by inoculating ten 1 instar larvae of Frankliniella occidentalis per leaf to the leaf. 10% emulsifiable concentrates of the compound of the present invention and a comparative compound were diluted with water containing a spreader to prepare drug solutions in a predetermined concentration. The drug solutions were dusted using a rotary dusting tower in an amount of 2.5 mL per styrol cup, and the cup was capped and stored in a thermostat room of 25° C. The number of killed larvae after 2 days was measured and the mortality was calculated from the following calculation formula: Mortality (%)=(number of killed larvae/number of released larvae)×100. Here, the test was carried out with two replications.

The structures appear in SMILES notation.

Usually mortality stands for the percentage killed. The low end stands for a weak lethal effect, the high end for a strong lethal effect. On to `Cc1cc(C2=NOC(c3cc(Cl)cc(Cl)c3)(C(F)(F)F)C2)ccc1C(=O)NC1(c2ccccn2)CC1` (stereo not drawn) [No. 1-007, 4-[5-(3,5-Dichlorophenyl)-5-trifluoromethyl-4,5-dihydroisoxazole-3-yl]-2-methyl-N-[1-(2-pyridyl)cyclopropyl]benzamide], for which the figures for the mortality at 10 ppm (in the test with Plutella xylostella; in the test on Spodoptera litura; in test [2]) were at least 80%, at least 80% and 100%, respectively. The mortality at 100 ppm with Homona magnanima and with Thrips palmi was at least 80% throughout. Besides, the mortality at 500 ppm (in test [1]; in the test on Aulacophora femoralis; in the test with Liriomyza trifolii) was at least 80% throughout. The mortality at 0.1 ppm in test [2] stood at 0%. The molecule further yielded a mortality at 0.3 ppm in test [2] of 0%. This molecule yielded a mortality at 1 ppm in test [2] of 38.1%. The molecule further had a mortality at 3.3 ppm in test [2] of 96.3%.
